Each structure is given as a SMILES string.

As a reminder, the IC50 is the concentration that gives 50% inhibition.

The target in the first test is T1, human AT1 receptor (Homo sapiens, UniProt P30556).
T1 construct: expressed in transfected cells; membrane fraction
T1 sequence (P30556 1-359): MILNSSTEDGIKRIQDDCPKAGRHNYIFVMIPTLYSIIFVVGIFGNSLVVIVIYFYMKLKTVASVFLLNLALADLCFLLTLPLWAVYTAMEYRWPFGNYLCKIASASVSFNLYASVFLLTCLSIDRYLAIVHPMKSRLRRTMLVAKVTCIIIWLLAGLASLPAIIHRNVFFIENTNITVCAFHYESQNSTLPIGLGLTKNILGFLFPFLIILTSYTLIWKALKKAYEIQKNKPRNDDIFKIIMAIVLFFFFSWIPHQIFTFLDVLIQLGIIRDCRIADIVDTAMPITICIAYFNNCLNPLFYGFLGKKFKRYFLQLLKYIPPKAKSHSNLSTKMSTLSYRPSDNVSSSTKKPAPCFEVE
The experiment in a line: AT1 receptor antagonistic activity: [125I]-angiotensin II binding assay on human AT1 receptor-expressing CHO-K1 cellular membrane fraction. Particulars: 22.5 pM [125I]-angiotensin II, 1 hr room temperature. On the procedure: CHO-K1 cell (RIKEN, Japan) capable of stable expression of human AT1 receptor was cultured, recovered, suspended in homogenize buffer (10 mM NaHCO3 (pH 7.4), 5 mM EDTA, 1× Complete EDTA free) [manufactured by Roche, Switzerland], and homogenized. The homogenate was centrifuged at low-speed (900×g, 10 min, 4° C.), and the supernatant was recovered and ultracentrifuged (90,000×g, 1 hr, 4° C.). The supernatant was discarded, and the pellets were resuspended in suspension buffer (50 mM Tris (pH 7.4), 1 mM EDTA, 1× Complete EDTA free).
(9 μg) in the presence of AT1 membrane and test compound in 100 μl, (total reaction volume) of reaction buffer (50 mM Tris (pH 7.4), 10 mM MgCl2 supplemented or not supplemented with 0.3 mg/mL fatty acid-free bovine serum albumin [manufactured by Wako Pure Chemical Industries, Ltd., Japan]). The reaction mixture was incubated in 96 well polypropylene plate for 1 hr at room temperature, and the reaction was quenched by rapid filtration (96 well cell harvester) through a GF/C filter treated with wash buffer (50 mM Tris (pH 7.4)). Subsequently, the filter was washed 5 times with 0.3 mL of ice-cooled wash buffer. […] Total binding was measured in the presence of 1% DMSO and nonspecific binding was measured in the presence of […] Candesartan.
Turning to `CCCc1c(Cc2ccc(-c3ccccc3-c3noc(=O)[nH]3)cc2)c(=O)n([C@H]2CC[C@H](OC(C)C(C)(C)O)CC2)c2ncnn12` (single isomer, unassigned) [Example 318, 4-[trans-4-(2-hydroxy-1,2-dimethylpropoxy)cyclohexyl]-6-{[2′-(5-oxo-4,5-dihydro-1,2,4-oxadiazol-3-yl)biphenyl-4-yl]methyl}-7-propyl[1,2,4]triazolo[1,5-a]pyrimidin-5(4H)-one (retention time: short)], the IC50 worked out at 1.8 nM.

`CCCCc1c(Cc2ccc(-c3ccccc3-c3noc(=O)[nH]3)cc2)c(=O)n(C2CCOC(C)C2)c2ncnn12` (stereo not shown) [Example 160, 7-butyl-4-(2-methyltetrahydro-2H-pyran-4-yl)-6-{[2′-(5-oxo-4,5-dihydro-1,2,4-oxadiazol-3-yl)biphenyl-4-yl]methyl}[1,2,4]triazolo[1,5-a]pyrimidin-5(4H)-one] returned an IC50 of 1.3 nM.

Another test deals with T2, human PPARγ (Homo sapiens, UniProt P37231).
T2 construct: expressed in transfected cells
T2 sequence (P37231 1-477 isoform P37231-2): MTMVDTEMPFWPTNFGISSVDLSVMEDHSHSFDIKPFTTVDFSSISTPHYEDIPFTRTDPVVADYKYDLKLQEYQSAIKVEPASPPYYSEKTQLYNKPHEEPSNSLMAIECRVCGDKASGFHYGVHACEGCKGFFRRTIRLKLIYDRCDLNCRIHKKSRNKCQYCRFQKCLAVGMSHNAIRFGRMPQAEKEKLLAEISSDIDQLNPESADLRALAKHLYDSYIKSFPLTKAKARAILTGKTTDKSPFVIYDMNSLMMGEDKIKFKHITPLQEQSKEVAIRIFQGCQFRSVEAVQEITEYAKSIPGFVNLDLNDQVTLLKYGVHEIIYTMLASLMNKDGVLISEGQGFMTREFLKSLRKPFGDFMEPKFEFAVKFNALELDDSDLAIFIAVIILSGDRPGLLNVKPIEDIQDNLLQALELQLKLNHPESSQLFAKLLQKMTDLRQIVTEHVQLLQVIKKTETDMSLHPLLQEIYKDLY
T2 sequence (P19793 1-462 partner): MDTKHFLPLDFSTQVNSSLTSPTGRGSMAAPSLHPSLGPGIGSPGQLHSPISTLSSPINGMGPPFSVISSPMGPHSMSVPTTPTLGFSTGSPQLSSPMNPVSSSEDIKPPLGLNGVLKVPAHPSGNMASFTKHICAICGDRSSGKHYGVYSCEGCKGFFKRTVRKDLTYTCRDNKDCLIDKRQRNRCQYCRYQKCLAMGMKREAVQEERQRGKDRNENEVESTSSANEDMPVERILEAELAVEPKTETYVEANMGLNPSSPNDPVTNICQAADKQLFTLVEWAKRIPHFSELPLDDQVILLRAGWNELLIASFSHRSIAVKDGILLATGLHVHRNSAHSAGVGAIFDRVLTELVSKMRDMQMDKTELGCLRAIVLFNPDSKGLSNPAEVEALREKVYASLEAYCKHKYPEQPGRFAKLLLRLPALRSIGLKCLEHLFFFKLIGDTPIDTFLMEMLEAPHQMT
Nature of the test: PPARγ agonistic activity: luciferase reporter assay in PPARγ:RXRα:4ERPP/CHO-K1 cells. The class given is cell-based. Particulars: CHO-K1, test compound 10^−6 M; luciferase activity of control compound X (1 μM) = 100%, non-administration group = 0%. From the text: A CHO-K1 cell cultured in a 150 cm^2 cell culture flask [manufactured by Corning Costar Corporation, USA] comprising Ham's F12 medium [manufactured by INVITROGEN, USA] supplemented with 10% fetal bovine serum [manufactured by INVITROGEN, USA] was taken off by treating with 0.5 g/L trypsin-0.2 g/L EDTA (ethylenediamine tetraacetate) [manufactured by Life Technologies, Inc., USA], and then the cell was washed with PBS (Phosphate-buffered saline) [manufactured by INVITROGEN, USA], centrifuged (1000 rpm, 5 minutes) and suspended in PBS. Subsequently, DNA was introduced into the cell under the conditions shown below using GENE PULSER [manufactured by Bio-Rad Laboratories, USA].
Namely, to a cuvette having a 0.4 cm gap were added 8×10^6 cells and 10 μg of plasmid pVgRXR2-hPPARγ obtained in the above-mentioned (4) and 10 μg of reporter plasmid pGL3-4ERPP-TK neo obtained in the above-mentioned (3), which was subjected to electroporation at the voltage of 0.25 kV under the capacitance of […] Subsequently, the cell was transferred into a F12 medium comprising 10% fetal bovine serum and cultured for 24 hours, and then the cell was taken off again and centrifuged. Then, the pellet was suspended in Ham's F12 medium comprising 10% fetal bovine serum supplemented with 500 μg/ml of Geneticin [manufactured by INVITROGEN, USA] and 250 μg/ml of Zeocin [manufactured by INVITROGEN, USA]. The obtained suspension was diluted to the density of 10^4 cells/ml and inoculated in a 96-well plate [manufactured by Corning Costar Corporation, USA], which was cultured in a CO2 gas incubator at 37° C., whereby obtaining a Geneticin- and Zeocin-resistant transformant.
Subsequently, after the transformed cell line thus obtained was cultured in a 24-well plate [manufactured by Corning Costar Corporation, USA], a cell line in which expression of the luciferase was induced, i.e., PPARγ:RXRα:4ERPP/CHO-K1 cell was selected by the addition of 10 μM pioglitazone hydrochloride.
PPARγ:RXRα:4ERPP/CHO-K1 cells obtained in the above-mentioned (5) were cultured in F12 medium [manufactured by INVITROGEN, USA] containing 10% fetal bovine serum [manufactured by MOREGATE, Australia], seeded in a 96 well half-area white plate [manufactured by Corning Coster Corporation, USA] at 5×10^3 cells/well, and cultured in a CO2 incubator at 37° C. overnight.
Then, the medium was removed from the 96 well half-area white plate, hamF12 medium containing 0.1% fatty acid-free bovine serum albumin (BSA) (45 μl) and a test compound (5 μl) were added, and the mixture was cultured in the CO2 incubator at 37° C. for 1 day. After removing the medium, Picagene 7.5 [manufactured by Dai Nippon Inki, Japan] (20 μl) diluted 2-fold with HBSS (HANKS' BALANCED SALT SOLUTION) [manufactured by BIO […], USA] was added, and the mixture was stirred. Using 1420 ARVO Multilabel Counter [manufactured by PerkinElmer, USA], luciferase activity was measured. The percentage (%) was calculated from the luciferase activity of the test compound when the luciferase activity of the control compound (compound X: 5-[3-(4-{[2-(2-furyl)-5-methyl-1,3-oxazol-4-yl]methoxy}-3-methoxyphenyl)propyl]-1,3-oxazolidine-2,4-dione) (1 μM) was taken as 100% and the luciferase activity of the test compound non-administration group was taken as 0%.
Background: A reporter such as luciferase makes a cellular process visible.
Compound `CCCc1c(Cc2ccc(-c3ccccc3-c3noc(=O)[nH]3)cc2)c(=O)n([C@H]2CC[C@H](OCC(C)O)CC2)c2ccnn12` (relative stereo) [Example 419, 4-[trans-4-(2-hydroxypropoxy)cyclohexyl]-6-{[2′-(5-oxo-4,5-dihydro-1,2,4-oxadiazol-3-yl)biphenyl-4-yl]methyl}-7-propylpyrazolo[1,5-a]pyrimidin-5(4H)-one] came in with an activation at 1 µM of 21%. For the compound `CCCc1c(Cc2ccc(-c3ccccc3-c3noc(=O)[nH]3)cc2)c(=O)n([C@H]2CC[C@H](OCC(C)O)CC2)c2ccnn12` (single isomer, unassigned) [Example 440, 4-[trans-4-(2-hydroxypropoxy)cyclohexyl]-6-{[2′-(5-oxo-4,5-dihydro-1,2,4-oxadiazol-3-yl)biphenyl-4-yl]methyl}-7-propylpyrazolo[1,5-a]pyrimidin-5(4H)-one (optically active form, retention time: short)], the activation at 1 µM was found to be 16%.

On to `CCCc1c(Cc2ccc(-c3ccccc3-c3noc(=O)[nH]3)cc2F)c(=O)n(C2CCOC2)c2nc(C)nn12` (stereo not shown) [Example 120, 6-{[3-fluoro-2′-(5-oxo-4,5-dihydro-1,2,4-oxadiazol-3-yl)biphenyl-4-yl]methyl}-2-methyl-7-propyl-4-(tetrahydrofuran-3-yl)[1,2,4]triazolo[1,5-a]pyrimidin-5(4H)-one], for which the activation at 1 µM is 18%. Consider `CCCc1c(Cc2ccc(-c3ccccc3-c3noc(=O)[nH]3)cc2)c(=O)n([C@H]2CC[C@@H](OCC(C)(C)O)CC2)c2ncnn12` [Example 158, 4-[cis-4-(2-hydroxy-2-methylpropoxy)cyclohexyl]-6-{[2′-(5-oxo-4,5-dihydro-1,2,4-oxadiazol-3-yl)biphenyl-4-yl]methyl}-7-propyl[1,2,4]triazolo[1,5-a]pyrimidin-5(4H)-one], for which the activation at 1 µM amounted to 37%. For `CCCc1c(Cc2ccc(-c3ccccc3-c3noc(=O)[nH]3)cc2)c(=O)n([C@H]2CC[C@H](OCC(C)(C)O)CC2)c2ncnn12` [Example 381, 4-[trans-4-(2-hydroxy-2-methylpropoxy)cyclohexyl]-6-{[2′-(5-oxo-4,5-dihydro-1,2,4-oxadiazol-3-yl)biphenyl-4-yl]methyl}-7-propyl[1,2,4]triazolo[1,5-a]pyrimidin-5(4H)-one], the activation at 1 µM stood at 32%. On the same count and under the same terms, the figure for `CCCc1c(Cc2ccc(-c3ccccc3-c3noc(=O)[nH]3)cc2F)c(=O)n([C@H]2C[C@H](OCC(C)(C)O)C2)c2nc(C)nn12` [Example 403, 6-{[3-fluoro-2′-(5-oxo-4,5-dihydro-1,2,4-oxadiazol-3-yl)biphenyl-4-yl]methyl}-4-[trans-3-(2-hydroxy-2-methylpropoxy)cyclobutyl]-2-methyl-7-propyl[1,2,4]triazolo[1,5-a]pyrimidin-5(4H)-one] is 17%; for `CCCc1c(Cc2ccc(-c3ccccc3-c3noc(=O)[nH]3)cc2F)c(=O)n([C@H]2C[C@@H](OCC(C)(C)O)C2)c2nc(C)nn12` [Example 404, 6-{[3-fluoro-2′-(5-oxo-4,5-dihydro-1,2,4-oxadiazol-3-yl)biphenyl-4-yl]methyl}-4-[cis-3-(2-hydroxy-2-methylpropoxy)cyclobutyl]-2-methyl-7-propyl[1,2,4]triazolo[1,5-a]pyrimidin-5(4H)-one] it is 28%; for `CCCc1c(Cc2ccc(-c3ccccc3-c3noc(=O)[nH]3)cc2)c(=O)n([C@H]2CC[C@H](OCC(C)(C)O)CC2)c2ccnn12` [Example 413, 4-[trans-4-(2-Hydroxy-2-methylpropoxy)cyclohexyl]-6-{[2′-(5-oxo-4,5-dihydro-1,2,4-oxadiazol-3-yl)biphenyl-4-yl]methyl}-7-propylpyrazolo[1,5-a]pyrimidin-5(4H)-one] it is 25%.

The values above are taken from patent publication US8283353B2, “Fused ring compound and use thereof” (Takeda Pharmaceutical Company Limited, priority 2009, dated 2012).
